Paper PMC7664879, “Discovery of 12O—A Novel Oral Multi-Kinase Inhibitor for the Treatment of Solid Tumor” (Molecules, 2020)

What was measured:
SiHa cells [1] = assay: Cell cycle assay (propidium iodide, flow cytometry); type: cell-based, human; details: 0.04 μM, 24 h
Experimental: To understand how 12O inhibited cell proliferation, cell cycle analysis was performed. The effect of 12O on cell cycle distribution was assessed in the SiHa cell lines. […] Of note, 12O at 0.04 μM was able to increase the proportion of the cells in the G2/M phase from approximately 16.0 ± 1.3% (DMSO) to 22.3 ± 0.7%, and decreased the corresponding fraction of the cells in the S phase from about 22.8 ± 0.4 % (DMSO) to 16.1 ± 1.1 % (Figure 3).
Cells were plated on 6-well culture plates at a density of 5 × 10^5 cells/mL. The cells were treated with the indicated concentrations of 12O or ribociclib for 24 h after their adherence. Cells were washed with PBS for three times and then fixed with ice cold 75% ethanol overnight. The fixed cells were then washed with PBS and stained with propidium iodide ([…]) in the presence of RNase A (0.5 mg) for 30 min at 37 °C. The stained cells were then subjected to flow cytometry (Becton Dickinson (BD), San Jose, CA, USA.) for cell cycle analysis.

SiHa cells [2] = assay: Colony formation assay, SiHa; type: cell-based, human
From the text: Colony formation assay assesses the effect of a therapy on clonogenic survival which is one of the most important parameters of therapy efficacy in oncology. […] We also performed colony formation assay in SKOV3 cells at concentrations according to IC50 values to confirm the result (Figure S3).
Cells treated with indicated compounds or vehicle were washed with PBS, trypsinized, and reseeded into 6-well plates at 500–1000 cells per well. The colonies were allowed to form for 10–15 days. At the end of the culture, cells were washed with PBS, fixed with methanol for 30 min, then stained with 0.5% crystal violet overnight. After careful washing, the images were taken.

OVCAR-5 = assay: CCK-8 cell growth inhibition, OVCAR-5; type: cell-based, human; details: Homo sapiens, OVCAR-5; ovarian cancer; CCK-8 assay, 72-h incubation
Experimental: In vitro anticancer screening of all newly synthesized compounds towards human solid tumor cells, cervical (SiHa) and ovarian (SKOV3) cancer cell lines, was carried out by standard CCK-8 assay with cisplatin as the positive control, as cisplatin is one of the most used chemotherapy drugs. […] The compound was further evaluated in a dose response study against a panel of solid tumor cells, including cervical cancer cell lines (SiHa and HeLa), ovarian cancer cell lines (SKOV3 and OVCAR-5), breast cancer cell lines (4T1 and MCF-7), lung cancer cell lines (A549 and H460) to test cytotoxic activity. The IC50 values were summarized in Table 2, including the cytotoxic activity of the cisplatin used as reference compound.
The viability of cells as determined using the CCK8 assay method. Cells were seeded (2000–3000 cells per well) in 96-well plates. After incubation for 24 h in serum-containing media, the cells were treated with drugs at different concentrations diluted with culture medium for 72 h at 37 °C with a 5% CO2 atmosphere. […] Finally, absorbance values of test wells (AS), control wells (AC) and blank wells (Ab) at 450 nm were read using the Microplate Reader (Promega, WI). Inhibition ratios were calculated as follows: [(AC − AS)/ (AC−Ab)] × 100%. IC50 values were calculated using GraphPad software.

SiHa xenograft = SiHa xenograft mouse model, oral dosing; type: in vivo; details: for Tumor growth inhibition (TGI): SiHa xenograft mice, every day
Experimental: Based on a desirable set of in vitro properties, 12O was finally selected for further in vivo evaluation. We proceeded to test the antitumor efficacy of 12O in SiHa xenograft mice. Animals were orally given three doses (5, 10, and 20 mg Kg^−1) of 12O, one dose (20 mg Kg^−1) of cisplatin (positive control), or vehicle (control) every day. […] Of note, In Figure 5c, an obvious decrease in tumor size was also observed at the end of observation. The average tumor weight (Figure 5d) of the 12O-treated group was less than that of cisplatin. HE staining was further performed to identify the efficacy of 12O (Figure 5e). […] Additional kinase activities of 12O intimately associated with the growth, survival, and metastasis in tumor cells, may contribute to the antitumor activity, but may also cause side effects. Multi-target kinase inhibitor extensively used in clinic cancer therapy, while hampered by associated adverse reactions and side-effect. Thus, further evidence is needed. An in-depth study of compound 12O is ongoing in our laboratory and will be reported in due course.
All animal studies were conducted under the approval of the Experimental Animal Management Committee of Nankai University (No. NKUEC20190228). Six- to eight-week-old female BALB/c nude mice were purchased from Beijing HFK Bioscience Company. Mice were fed in an SPF-level laboratory animal room. The mice were kept in independent ventilation cages with autoclaved corncobs at the bottom of the cage as bedding. The dimensions of the cages were 390 × 180 × 180 mm. Environmental factors: Average air temperature ranged from 20 to 26 °C with average relative air humidity ranging from 40 to 70%. Noise was below 60 decibels. Ventilation times were more than 15 times/hour. Air velocity was 0.1~0.2m/s. The ammonia concentration was below 14/(mg/m³). Working illumination was 150~300LX and animal illumination was 15~20LX. The nutritional components of mouse food include: water content: ≤10%, crude protein: ≥18%, crude fat: ≥4%, crude fiber: ≥5%, minerals: ≥4%, calcium: 1.0–1.8%, Phosphorus: 0.6-1.2%. The water that mice drink is sterilized by the animal drinking system.
Cells SiHa were harvested during the exponential-growth phase, washed 3 times with serum-free medium, followed by resuspension at a concentration of 2 × 10^6 per mL. A total of 100 μL of cell suspension was injected into SCID mice subcutaneously. After the tumors had grown to 100−150 mm^3, all the mice were randomized into 5 groups (5 mice for each group, 25 mice total). The mice were treated daily via oral gavage administration with 12O (5, 10, or 20 mg kg^−1 d^−1), cisplatin (20 mg kg^−1 d^−1), or vehicle. […] Mice were monitored for side effects every day. Body weights and tumor sizes were determined every other day and volume was also observed. At the end-point of the study, all mice had survived. Mice were euthanized and the subcutaneous tumor tissues were stripped and collected. Tumor measurements were calculated using a digital vernier caliper, and the volumes were determined using the following calculation: (short^2) × long × 0.5. Inhibition rate of tumor growth was calculated using the following formula: 100 × {1 − [(tumor volume final-tumor volume initial) for 12O-treated group]/ [(tumor volume final-tumor volume initial) for the vehicle-treated group]} [23].

`CC(C)n1nnc2ccc(-c3nc(Nc4ccc(CNC(=O)C5(C(=O)Nc6ccccc6)CC5)cc4)ncc3F)cc21` [12O] was tested, and the “proportion of the cells in the G2/M phase” value (SiHa cells [1]; DMSO 16.0 ± 1.3%) was 22.3 ± 0.7%, the “fraction of the cells in the S phase” value (SiHa cells [1]; DMSO 22.8 ± 0.4 %) was 16.1 ± 1.1% and the formation of colonies (SiHa cells [2]) was “dose-dependently decreased”. The IC50 (OVCAR-5) was 52 nM, the “Tumor growth inhibition (TGI)” value (SiHa xenograft; 5 mg/kg oral) was 51.25% and the “Tumor growth inhibition (TGI)” value (SiHa xenograft; 10 mg/kg oral) was 65.52%. For the same compound, the “Tumor growth inhibition (TGI)” value (SiHa xenograft; 20 mg/kg oral) was 79.29% and the “toxicity in treated mice (body weight)” value (SiHa xenograft; SiHa xenograft mice, 5, 10 and 20 mg/kg oral daily) was “without obvious toxicity”.
